# Key:
# Candida albicans = assay: Biofilm formation assay (crystal violet); type: cell-based; conditions: for normalized biofilm (% of control): 0.06 wt % acid, unbuffered, biofilm measured after 24 h; for normalized biofilm (OD560) at pH 2.6: pH 2.6, 24 h treatment; for normalized biofilm (OD560) at pH 6.1: pH 6.1, 24 h treatment
# Description: (§1) Yeast strains (Table 1) were grown at 37° C. in complete medium YPD (0.5% yeast extract, 1% peptone, 2% glucose) or minimal medium consisting of YNB (yeast nitrogen base without amino acids and ammonium sulphate, FORMEDIUM™, CYN0505) supplemented with 0.5% ammonium sulphate, 0.2% glucose and 100 mM L-proline. If needed 2% agar was used to solidify media. The liquid minimal medium (YNB (yeast nitrogen base without amino acids and ammonium sulphate, FORMEDIUM™, CYN0505) supplemented with 0.5% ammonium sulphate, 0.2% glucose and 100 mM L-proline) was used for biofilm assay (biofilm medium).
# (§2) In the experiments on the impact of pH on biofilm the pH values (from 2.6 to 6.6) were obtained using either different potassium phosphate buffers at the final concentration 0.25 M, or by the addition of citric acid, lactic acid, and gluconic acid to the biofilm medium.
# (§3) Biofilm was measured in liquid culture as described [K. Scherz et al., G3 (Bethesda), 2014, 4, 1671-1680. I. Serrano-Fujarte et al. Biomed Res Int. 2015; 2015:783639] with some modifications. Prior the biofilm assay, yeast cultures were grown in liquid YPD medium for 24 hours until stationary phase (OD600 11-17)^2, cells were then pelleted by centrifugation (1699 g), washed with sterile water and cells were further inoculated into test biofilm medium (YNB (yeast nitrogen base without amino acids and ammonium sulphate) supplemented with 0.5% ammonium sulphate, 0.2% glucose and 100 mM L-proline pH7.0) at final concentration 0.2 OD600/ml and incubated in 96-well flat-bottom polystyrene microtiter plates (Sigma Aldrich, Corning® Costar® culture plates, CLS3596-50EA) for 72 hours at 37° C. thermostat. At defined time points crystal violet (HT901-8FOZ; Sigma Aldrich) was added to the media at the final concentration 0.05%, in addition total biomass was measured. After 24 hours of cells staining, plate wells were washed four times with 200 μl of water to remove planktonic cells, biofilms were then dried and dissolved in 200 μl of 96% ethanol. Total biomass and crystal violet biofilm staining measurements were performed at OD560 with FLUOstar OPTIMA plate reader, BMG LABTECH. Crystal violet biofilm measurements were normalized to the total biomass (OD560Biofilm/OD560 total biomass).
# (§4) To compare the effects of different hydroxylated carboxylic acids at low concentrations, the biofilm formation was measured 24 h after addition of 0.06 wt % of glyceric acid, xylonic acid, citric acid, gluconic acid, and lactic acid, under unbuffered conditions.
# In order to further evaluate the effect of gluconic acid in preventing biofilm formation, the biofilm formation at different pH were determined (as described in Example 1) for gluconic acid, lactic acid and citric acid.
# [1] = Resulting pH of biofilm medium after addition of hydroxylated carboxylic acid; type: physicochemical; conditions: 0.06% acid in biofilm medium, unbuffered
# Description: as §4
# Escherichia coli K12 = assay: E. coli biofilm study in M9 medium (crystal violet); type: cell-based; conditions: for effect on growth (biomass): M9 medium, 24-48 hours; for biofilm lowered: pH 6.6
# Description: The bacterial strain Escherichia coli K12 was used for the biofilm study. This strain was maintained on LB medium at 37° C. The biofilm was studied in synthetic medium M9 (×1 M9 minimal salts (Sigma M6030), 2 mM MgSO4, 0.1 mM CaCl2, and 0.2% glucose), which contained either phosphate buffer, citric acid, lactic acid, gluconic acid or glucono-O-lactone to obtain media with different pH (2.6-6.6).
# The overnight culture of E. coli K12 (OD600˜5.0) was washed with sterile water and inoculated to the final concentration 0.2 OD/ml of M9 medium with different pH of different compounds. The biofilm development was studied in 96-well flat-bottom polystyrene microtiter plates (Sigma Aldrich, Corning® Costar® culture plates, CLS3596-50EA). The biofilm was stained with crystal violet.
# Candida glabrata = assay: Biofilm formation assay (crystal violet); type: cell-based; conditions: for normalized biofilm (OD560) at pH 2.6: pH 2.6, 72 h treatment; for normalized biofilm (OD560) at pH 6.1: pH 6.1, 72 h treatment
# Description: as §1, §2, §3
# Candida glabrata is much more complicated to treat, compared to Candida albicans. However, a clear effect is obtained by longer treatment, i.e. 72 h with gluconic acid (Table 4).
Structure (SMILES),normalized biofilm (% of control) (Candida albicans),normalized biofilm (OD560) at pH 2.6 (Candida albicans),normalized biofilm (OD560) at pH 6.1 (Candida albicans),resulting pH [1],effect on growth (biomass) (Escherichia coli K12),normalized biofilm (OD560) at pH 2.6 (Candida glabrata),normalized biofilm (OD560) at pH 6.1 (Candida glabrata),"less biofilm formation on replacing lactic acid by gluconic acid (Candida albicans; 0.06 wt %, 24 h, 6% vs 13% of control)",biofilm lower compared to the phosphate medium (Escherichia coli K12; pH 2.6),biofilm lower compared to the phosphate medium (Escherichia coli K12; pH 3.0),biofilm lowered (Escherichia coli K12)
O=C(O)CC(O)(CC(=O)O)C(=O)O [citric acid],14 % of control,0.34 OD560,4.6 OD560,4.6,inhibiting effect on the growth,1.0 OD560,2.9 OD560,–,–,–,–
O=C(O)[C@H](O)[C@@H](O)[C@H](O)[C@H](O)CO [gluconic acid],6 % of control,–,0.17 OD560,6.5,inhibiting effect on the growth,0.07 OD560,1.6 OD560,> 50%,38 fold,15 fold,~2 fold
O=C(O)C(O)CO (centres unmarked) [glyceric acid],40 % of control,–,–,7.0,–,–,–,–,–,–,–
CC(O)C(=O)O (centres unmarked) [lactic acid],13 % of control,1.6 OD560,3.1 OD560,4.9,inhibiting effect on the growth,0.9 OD560,2.8 OD560,–,–,–,~2 fold
O=C(O)[C@H](O)[C@@H](O)[C@H](O)CO [xylonic acid],31 % of control,–,–,7.0,–,–,–,–,–,–,–

# Reference: patent publication US12226396B2, “Gluconic acid derivatives for use in the treatment and/or prevention of microbial infections” (GEDEA BIOTECH AB, priority 2017, dated 2025)
